This is an account of results in patent US20230321123A1, “INHIBITORS OF PSEUDOMONAS AERUGINOSA VIRULENCE FACTOR LasB” (Helmholtz-Zentrum Für Infektionsforschung GmbH, priority 2020, published 2023).

A value given as a limit tells only on which side of the number the result lay.

A short description of data set [1]: mini-Ames reverse mutation assay. In kind it is cell-based. The conditions noted are these: up to 125 μg/mL. The source says: (§1) As the compound of example 2 has shown an impressive activity in the in vitro LasB inhibition assay, high selectivity over a broad spectrum of human enzymes and no signs of cytotoxicity in vitro, it has been subjected to a more advanced safety screening (Table 9).

A further data set deals with T1, CYP1A (Homo sapiens, UniProt P05177).
T1 sequence (P05177 2-516): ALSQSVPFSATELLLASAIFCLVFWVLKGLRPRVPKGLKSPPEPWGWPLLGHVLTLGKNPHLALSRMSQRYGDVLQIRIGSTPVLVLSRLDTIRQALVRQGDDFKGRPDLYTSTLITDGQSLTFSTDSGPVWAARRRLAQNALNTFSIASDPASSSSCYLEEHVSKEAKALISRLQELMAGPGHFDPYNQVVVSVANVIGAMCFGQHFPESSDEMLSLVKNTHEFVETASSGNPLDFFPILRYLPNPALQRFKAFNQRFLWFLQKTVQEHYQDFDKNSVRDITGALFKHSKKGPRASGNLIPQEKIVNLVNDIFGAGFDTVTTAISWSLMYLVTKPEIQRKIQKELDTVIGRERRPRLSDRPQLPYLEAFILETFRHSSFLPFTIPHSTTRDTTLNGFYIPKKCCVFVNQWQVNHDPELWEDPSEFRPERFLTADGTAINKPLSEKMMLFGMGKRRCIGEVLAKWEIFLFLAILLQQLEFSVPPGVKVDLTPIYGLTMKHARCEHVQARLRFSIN
Kind of data set: CYP inhibition CYP1A. In kind it is in vitro ADME.
Source text: as §1

The next data set concerns the target LasB (Pseudomonas aeruginosa, UniProt Q02RJ6). As to the kind of experiment: biochemical. More on the design: species or system P. aeruginosa. The conditions noted are these: IC50 against LasB.
The nature of data set [2]: Pharmacokinetic (PK) studies in mice. In kind it is in vivo. The conditions noted are these: 10 mg/kg. The protocol: Moreover, the compound of example 2 was subjected to pharmacokinetic (PK) studies in mice (Table 10). Injected intravenously (i.v.) at a dose of 10 mg/kg, it is detectable in blood for 2 h.
Another data set addresses CYP3A4 (Homo sapiens, UniProt P08684). As to the kind of experiment: CYP inhibition CYP3A4. In kind it is in vitro ADME.
Source text: as §1

The next data set addresses CYP2D6 (Homo sapiens, UniProt P10635). Kind of data set: CYP inhibition CYP2D6. In kind it is in vitro ADME.
Source text: as §1

For a further data set, the target named is ADAM17 (TACE) (Homo sapiens, UniProt P78536). As to the kind of experiment: Selectivity against human off-targets: ADAM17 (TACE). It counts as biochemical. The conditions noted are these: read-out: IC50 ADAM17 (TACE).
Chain of ADAM17 (TACE) (P78536 215-824): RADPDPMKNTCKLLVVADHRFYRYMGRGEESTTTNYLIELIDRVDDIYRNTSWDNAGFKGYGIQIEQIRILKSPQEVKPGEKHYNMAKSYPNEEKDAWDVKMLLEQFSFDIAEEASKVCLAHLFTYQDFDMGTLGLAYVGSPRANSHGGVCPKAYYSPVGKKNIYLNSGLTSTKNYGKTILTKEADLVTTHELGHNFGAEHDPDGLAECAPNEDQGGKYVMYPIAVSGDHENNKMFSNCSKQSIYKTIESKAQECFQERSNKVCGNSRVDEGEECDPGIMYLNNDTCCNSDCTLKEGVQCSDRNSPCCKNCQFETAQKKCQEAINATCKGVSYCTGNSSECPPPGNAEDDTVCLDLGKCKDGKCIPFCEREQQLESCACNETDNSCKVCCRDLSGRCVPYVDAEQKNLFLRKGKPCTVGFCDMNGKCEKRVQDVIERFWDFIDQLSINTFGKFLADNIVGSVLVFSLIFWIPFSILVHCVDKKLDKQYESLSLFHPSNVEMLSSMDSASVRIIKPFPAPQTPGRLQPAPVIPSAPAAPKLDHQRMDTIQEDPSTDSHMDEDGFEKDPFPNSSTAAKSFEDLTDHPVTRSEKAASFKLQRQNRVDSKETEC
For a further data set, the target named is hERG potassium channel (Homo sapiens, UniProt Q12809). As to the kind of experiment: hERG inhibition. It counts as biochemical.
Chain of hERG potassium channel (Q12809 whole entry): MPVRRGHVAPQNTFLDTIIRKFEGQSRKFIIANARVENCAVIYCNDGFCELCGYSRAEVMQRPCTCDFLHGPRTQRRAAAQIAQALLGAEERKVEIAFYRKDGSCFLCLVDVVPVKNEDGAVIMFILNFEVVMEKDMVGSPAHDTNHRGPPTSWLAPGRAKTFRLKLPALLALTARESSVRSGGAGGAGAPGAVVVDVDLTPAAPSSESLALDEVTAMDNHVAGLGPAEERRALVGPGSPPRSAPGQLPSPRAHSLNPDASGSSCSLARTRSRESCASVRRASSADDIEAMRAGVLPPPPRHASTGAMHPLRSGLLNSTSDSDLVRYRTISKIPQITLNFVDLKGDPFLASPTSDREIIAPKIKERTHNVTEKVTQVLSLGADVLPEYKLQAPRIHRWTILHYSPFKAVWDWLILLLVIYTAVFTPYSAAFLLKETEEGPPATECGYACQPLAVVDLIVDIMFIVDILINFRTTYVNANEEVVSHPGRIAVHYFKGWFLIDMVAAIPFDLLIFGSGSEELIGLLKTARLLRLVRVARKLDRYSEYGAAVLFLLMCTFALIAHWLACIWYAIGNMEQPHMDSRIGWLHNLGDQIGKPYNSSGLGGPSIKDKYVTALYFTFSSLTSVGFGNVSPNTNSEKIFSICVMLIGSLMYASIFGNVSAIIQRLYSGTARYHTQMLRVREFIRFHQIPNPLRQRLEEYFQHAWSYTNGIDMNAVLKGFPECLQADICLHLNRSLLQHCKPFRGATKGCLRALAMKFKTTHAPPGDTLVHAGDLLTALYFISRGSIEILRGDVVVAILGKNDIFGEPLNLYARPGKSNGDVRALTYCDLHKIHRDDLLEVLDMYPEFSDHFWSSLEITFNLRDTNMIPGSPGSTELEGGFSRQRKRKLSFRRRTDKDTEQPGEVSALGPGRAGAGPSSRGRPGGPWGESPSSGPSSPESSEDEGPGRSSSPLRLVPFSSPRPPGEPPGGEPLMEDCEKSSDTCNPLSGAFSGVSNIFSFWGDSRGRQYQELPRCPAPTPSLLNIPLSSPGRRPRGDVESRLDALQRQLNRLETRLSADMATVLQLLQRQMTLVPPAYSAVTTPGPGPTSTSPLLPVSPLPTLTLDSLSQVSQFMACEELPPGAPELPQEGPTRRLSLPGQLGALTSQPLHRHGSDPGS
Source text: as §1

The next data set deals with CYP2C9 (Homo sapiens, UniProt P11712). Kind of data set: CYP inhibition CYP2C9. In kind it is in vitro ADME.
Chain of CYP2C9 (P11712 whole entry): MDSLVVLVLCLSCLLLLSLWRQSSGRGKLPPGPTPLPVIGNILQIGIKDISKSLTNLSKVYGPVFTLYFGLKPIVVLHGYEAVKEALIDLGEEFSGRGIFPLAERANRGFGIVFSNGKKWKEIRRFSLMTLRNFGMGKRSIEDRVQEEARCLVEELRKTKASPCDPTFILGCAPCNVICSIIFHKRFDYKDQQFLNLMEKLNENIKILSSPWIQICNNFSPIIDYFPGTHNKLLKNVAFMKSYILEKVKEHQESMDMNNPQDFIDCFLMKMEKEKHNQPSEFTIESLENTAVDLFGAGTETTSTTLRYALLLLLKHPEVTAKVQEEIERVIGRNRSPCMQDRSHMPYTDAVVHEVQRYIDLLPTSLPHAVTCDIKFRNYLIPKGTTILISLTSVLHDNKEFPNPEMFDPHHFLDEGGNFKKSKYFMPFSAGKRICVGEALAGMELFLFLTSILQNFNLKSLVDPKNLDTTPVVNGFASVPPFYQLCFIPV
Source text: as §1

For another data set, the target named is MMP-8 (Homo sapiens, UniProt P22894). As to the kind of experiment: Selectivity against human off-targets: MMP-8. In kind it is biochemical. The conditions noted are these: read-out: Inhibition [%] MMP-8. The source says: (§2) The inhibition of zinc-containing human enzymes is described frequently for LasB inhibitors and poses a serious difficulty in the development of selective compounds. Particularly, the inhibition of matrix metalloproteases (MMPs) should be avoided. To further investigate this issue, three derivatives (the compounds of examples 1, 5 and 8) have been tested for their selectivity against several human off-targets, including six MMPs, ADAM17 (TACE), HDAC-3 and HDAC-8 (Table 4). The selectivity of the compounds is particularly high for MMPs and HDACs, whereas the inhibition of ADAM17 was considerably stronger.
Chain of MMP-8 (P22894 101-467): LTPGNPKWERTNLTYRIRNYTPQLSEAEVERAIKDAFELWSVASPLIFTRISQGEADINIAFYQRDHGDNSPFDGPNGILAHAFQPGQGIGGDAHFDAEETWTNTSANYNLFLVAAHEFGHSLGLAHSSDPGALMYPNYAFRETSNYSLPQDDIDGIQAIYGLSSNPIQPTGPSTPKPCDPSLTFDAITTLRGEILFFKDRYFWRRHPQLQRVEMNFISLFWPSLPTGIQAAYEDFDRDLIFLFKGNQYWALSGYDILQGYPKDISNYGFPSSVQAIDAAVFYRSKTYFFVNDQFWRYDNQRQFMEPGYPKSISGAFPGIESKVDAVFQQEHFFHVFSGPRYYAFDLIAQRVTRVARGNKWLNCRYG

For the next data set, the target named is HDAC-3 (Homo sapiens, UniProt O15379). As to the kind of experiment: Selectivity against human off-targets: HDAC-3. It counts as biochemical. The conditions noted are these: read-out: IC50 HDAC-3.
Chain of HDAC-3 (O15379 whole entry): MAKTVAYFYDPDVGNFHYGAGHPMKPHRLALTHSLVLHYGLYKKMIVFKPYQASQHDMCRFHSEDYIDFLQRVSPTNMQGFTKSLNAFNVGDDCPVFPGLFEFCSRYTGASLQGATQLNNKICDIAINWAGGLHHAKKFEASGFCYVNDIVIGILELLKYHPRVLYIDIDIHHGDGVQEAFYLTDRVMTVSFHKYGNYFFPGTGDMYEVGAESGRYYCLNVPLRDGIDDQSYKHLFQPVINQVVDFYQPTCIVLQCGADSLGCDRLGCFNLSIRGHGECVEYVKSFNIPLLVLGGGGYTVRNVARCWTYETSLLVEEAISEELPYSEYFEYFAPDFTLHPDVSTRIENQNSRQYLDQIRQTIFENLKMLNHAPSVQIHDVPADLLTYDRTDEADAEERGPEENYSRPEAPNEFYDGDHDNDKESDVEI
Chain of HDAC-3 (Q9Y618 395-489 partner limits assumed): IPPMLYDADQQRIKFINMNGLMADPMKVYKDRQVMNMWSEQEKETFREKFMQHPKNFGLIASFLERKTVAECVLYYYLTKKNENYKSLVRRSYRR
Source text: as §2

Chain of CYP3A4 (P08684 whole entry): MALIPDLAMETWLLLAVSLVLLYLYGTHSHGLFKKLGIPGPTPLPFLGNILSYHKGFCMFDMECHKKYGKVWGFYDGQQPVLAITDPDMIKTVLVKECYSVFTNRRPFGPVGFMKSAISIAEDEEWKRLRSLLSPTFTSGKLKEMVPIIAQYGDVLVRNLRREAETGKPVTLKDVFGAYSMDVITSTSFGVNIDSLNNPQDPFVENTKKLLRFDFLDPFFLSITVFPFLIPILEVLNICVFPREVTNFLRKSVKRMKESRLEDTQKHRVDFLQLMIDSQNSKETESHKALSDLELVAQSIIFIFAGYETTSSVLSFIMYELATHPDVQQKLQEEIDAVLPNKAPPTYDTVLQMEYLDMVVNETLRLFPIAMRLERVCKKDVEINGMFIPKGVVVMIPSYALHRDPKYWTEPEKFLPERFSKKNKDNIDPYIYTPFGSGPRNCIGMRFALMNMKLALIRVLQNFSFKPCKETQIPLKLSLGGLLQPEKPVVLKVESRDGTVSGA
Chain of CYP2D6 (P10635 whole entry): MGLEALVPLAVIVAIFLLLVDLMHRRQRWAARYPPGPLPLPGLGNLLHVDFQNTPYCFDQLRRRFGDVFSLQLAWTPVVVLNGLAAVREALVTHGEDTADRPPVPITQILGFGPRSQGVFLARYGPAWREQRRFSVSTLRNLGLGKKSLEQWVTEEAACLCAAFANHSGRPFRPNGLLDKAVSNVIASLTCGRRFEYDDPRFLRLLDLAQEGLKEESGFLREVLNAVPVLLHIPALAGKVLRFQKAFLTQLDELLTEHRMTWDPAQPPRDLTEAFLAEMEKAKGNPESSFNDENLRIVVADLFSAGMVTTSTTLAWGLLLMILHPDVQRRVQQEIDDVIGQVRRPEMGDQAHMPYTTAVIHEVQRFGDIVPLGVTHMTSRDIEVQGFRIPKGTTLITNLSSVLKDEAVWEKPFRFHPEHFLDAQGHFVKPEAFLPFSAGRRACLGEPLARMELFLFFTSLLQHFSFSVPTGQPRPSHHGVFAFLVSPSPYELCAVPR
Chain of LasB (Q02RJ6 198-498): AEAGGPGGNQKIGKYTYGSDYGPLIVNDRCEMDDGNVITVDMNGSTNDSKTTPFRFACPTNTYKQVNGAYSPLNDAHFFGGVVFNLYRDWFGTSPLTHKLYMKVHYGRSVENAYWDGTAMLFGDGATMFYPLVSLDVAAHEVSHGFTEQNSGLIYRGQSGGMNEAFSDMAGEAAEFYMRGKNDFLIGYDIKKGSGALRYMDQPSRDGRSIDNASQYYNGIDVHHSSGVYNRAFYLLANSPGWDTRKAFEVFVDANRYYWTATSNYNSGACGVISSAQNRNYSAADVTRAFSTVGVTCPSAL

As to `Cc1ccc(NC(=O)C(S)CC(C)C)cc1` (centres unmarked) [Example 2, 2-Mercapto-4-methyl-N-(p-tolyl)pentanamide], the Mini-Ames genotoxicity entry in data set [1] was “no genotoxicity and No”. Further, the IC50 is above 25 µM against CYP1A; 0.4 ± 0.13 µM on LasB; 15 µM on CYP3A4; 22.3 µM against CYP2D6; 4.5 ± 1.8 µM at ADAM17 (TACE); above 10 µM against hERG potassium channel. Moreover, the figures for the IC50 at CYP2C9 and at HDAC-3 were above 25 µM and above 100 µM, respectively. Besides, the CL/F in [2] (i.v.) worked out at 505 ± 119 mL/min/kg. Also, the V/F in [2] (i.v.) is 45.5 ± 2.8 L/kg. In data set [2] (i.v.), the “time detectable in blood” value worked out at 2 h. Besides, the AUC(0-t) in data set [2] (mouse, blood, iv) was determined as 241 ± 22 ng·h/mL. Besides, in data set [2] (mouse, blood, iv), the concentration peaked (Cmax) at 200 ng/mL. For the same molecule, in [2] (mouse, blood, iv), the half-life came to 50 min. Besides, the Tmax in data set [2] (mouse, blood, iv, first measuring point) is 15 min. In addition, on MMP-8, the inhibition at 100 µM was below 10%.
